The record followed here is paper PMC8845285, “Serotoninergic receptor ligands improve Tamoxifen effectiveness on breast cancer cells” (BMC Cancer, 2022).

In general, Ki refers to the equilibrium dissociation constant of an inhibitor or competing ligand from its target.

Each structure is given as a SMILES string.

Test [1] has as its target T1, serotonin 5-HT1A receptor (Rattus norvegicus, UniProt P19327).
T1 construct: serotonin 5-HT1A receptor, [^3H]-8-OH-DPAT, rat brain cortex; from tissue; host or cells: rat brain cortex
T1 sequence (P19327 1-422): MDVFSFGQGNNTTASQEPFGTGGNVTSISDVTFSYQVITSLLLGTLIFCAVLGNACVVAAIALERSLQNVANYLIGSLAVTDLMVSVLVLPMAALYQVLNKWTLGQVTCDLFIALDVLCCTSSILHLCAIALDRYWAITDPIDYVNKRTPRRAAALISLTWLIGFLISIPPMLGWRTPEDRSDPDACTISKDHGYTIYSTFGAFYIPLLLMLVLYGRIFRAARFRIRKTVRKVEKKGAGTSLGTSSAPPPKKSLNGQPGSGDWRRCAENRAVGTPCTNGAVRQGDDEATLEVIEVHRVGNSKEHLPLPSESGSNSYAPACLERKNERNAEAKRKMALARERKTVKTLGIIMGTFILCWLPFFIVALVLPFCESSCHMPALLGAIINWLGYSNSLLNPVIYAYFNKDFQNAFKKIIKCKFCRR
Put plainly: radioligand binding assay, 5-HT1A, [3H]-8-OH-DPAT. The note with it: rat brain cortex. The method, then: All reactions were monitored by TLC, carried out on Merck 60G F254 plates with fluorescent indicator and the plates were visualized with UV light (254 nm). Each final compound and intermediate was purified by silica gel column chromatography (Macherey-Nagel 60 0,063–0,2 mm/70–230 mesh). […] Unless otherwise stated, all spectra were recorded in CDCl3. Chemical shifts are reported in ppm using Me4Si as internal standard. The following abbreviations are used to describe peak patterns when appropriate: s (singlet), d (doublet), t (triplet), m (multiplet), q (quartet), qt (quintet), dd (double doublet), ddd (double dd), bs (broad singlet). Mass spectra of the final products were performed on LTQ Orbitrap XL™ Fourier transform mass spectrometer (FTMS) equipped with ESI ION MAX™ source (Thermo Fisher, San José, USA). Melting points were determined using a Buchi B-540 hot-stage instrument and are uncorrected. […] All the compounds were dissolved in 5% DMSO. The following specific radioligands and tissue sources were used: (a)serotonin 5-HT1A receptor, [^3H]-8-OH-DPAT, rat brain cortex; (b) serotonin 5-HT2A receptor, [^3H]ketanserin, rat brain cortex; (c)serotonin 5-HT2C receptor, [^3H]mesulergine, rat brain cortex. Non-specific binding was determined as described in the experimental section, and specific binding as the difference between total and non-specific binding. […] The IC50 values obtained were used to calculate apparent inhibition constants (Ki) by the method of Cheng and Prussoff, from the following equation: Ki = IC50/(1 + S/KD) where S represents the concentration of the hot ligand used and KD its receptor dissociation constant (KD values, obtained by Scatchard analysis, were calculated for each labeled ligand). Radioligand binding assays for 5-HT1A were performed following a published procedure. 5-HT2A and 5-HT2C binding assays were performed reported by Herndon et al..

A further test concerns MCF7 cells. Kind of test: MCF7 responsiveness to Tamoxifen in presence of SER, sulforhodamine B assay. It counts as cell-based, human. To be noted: Tamoxifen 5 μM, E2 100 nM, 72 h, estrogen-starved MCF7. The method, then:
MCF7 (ER^+, PR^+, HER2^−), SKBR3 (ER^−, PR^+, HER2^+) and MDA-MB231 (ER^−, PR^−, HER2^−) human BC cells and MCF10A non-cancer breast epithelial cells were available in our laboratory. MCF7, SKBR3 and MDA-MB231 cells were cultured in DMEM, supplemented with 10% FBS, 2 mM glutamine, 100 units/ml penicillin and 100 units/ml streptomycin. MCF10A cells were cultured in MEBM, supplemented with 0.4% BPE, 0.1% hEGF, 0.1%, Insulin, 0.1% Hydrocortisone and 0.1% GA-1000. […] Treatment with SER were carried out in culture conditions. Treatment with Tamoxifen and/or SER were carried out upon 48 h estrogen starvation in phenol-red free medium supplemented with 10% Charcoal Stripped (C/S) FBS, 2 mM glutamine, 100 units/ml penicillin and 100 units/ml streptomycin.
Cells were fixed with 50% trichloroacetic acid for at least 2 h at 4 °C, washed with distilled and de-ionized water, air-dryed and stained 30 min with 0.4% sulforhodamine B in 1% acetic acid. Unbound dye was removed and 10 mM tris-HCl solution (pH 7.5) was added to dissolve the protein-bound dye. Cell survival was assessed by optical density determination at 510 nm using a microplate reader.
After 72 h, cell cycle was assessed by Propidium Iodide staining (see Methods). […] As positive control, the cells were treated with E2 and SER alone (without Tamoxifen, dotted line). After 72 h, cell viability was assessed by sulforhodamine B assay (see Methods). […] After 72 h, mRNA levels of CTGF were determined by qPCR (see Methods and Table 1). Data were normalized on Ribosomal Protein S23 (Rps23) gene as internal standard and were reported as CTGF mRNA levels in MCF7 treated with SER relative to those in untreated cells (dotted line). a-c Data represent the mean ± SD of at least three independent triplicate experiments. * denotes statistically significant values compared with (a) percentage of untreated cells in G0/G1, S and G2/M cell cycle phase (*pval<0.05,**pval<0.01), (b) positive control (*adjp<0.05,**adjp <0.01,***adjp<0.001), (c) untreated cells (pval<0.05); # denotes statistically significant values compared with cells treated with Tamoxifen in absence of SER (#pval<0.05)
Fig. 7 Effect of low doses of SER79 and SER68 on MCF7 and MCF10A cells. a Estrogen-starved MCF7 cells (48 h) were treated with Tamoxifen (5 μM) in presence of E2 (100nM) and SER79 (5 μM) or SER68 (20 μM, 5 μM). As positive control, the cells were treated with E2 and SER alone (without Tamoxifen, dotted line). After 72 h, cell viability was assessed by sulforhodamine B assay (see Methods). […] After 72 h, mRNA levels of CTGF were determined by qPCR (see Methods and Table 1). Data were normalized on Ribosomal Protein S23 (Rps23) gene as internal standard. Bars represent CTGF mRNA levels in MCF7 treated with SER relative to those in untreated cells (dotted line). c MCF10A non-cancer breast epithelial cells were treated with SER79 (5 μM) or SER68 (20 μM). After 72 h, cell viability was assessed by sulforhodamine B assay (see Methods).
(The SRB assay estimates cell density from bound dye.)

Turning to `O=C1C2C3C=CC(C3)C2C(=O)N1OCCN1CCN(c2ccc(Cl)c(Cl)c2)CC1` (centres unmarked) [SER68], the “Ki ± SD, 5-HT1A [3H]8OH-DPAT” value in test [1] is listed as “No affinity”. In addition, the “further decrease of cell viability compared with Tamoxifen alone” value with MCF7 cells (SER 5 μM) is recorded as “No further effect”; in the test on MCF7 cells (SER 20 μM), “≈ 20%”; in the test on MCF7 cells (SER at IC50 dose) it was “≈ 30%”.
On to `N#CN=C(NCCCN1CCN(C(c2ccc(F)cc2)c2ccc(F)cc2)CC1)c1ccccn1` [SER79], for which the “Ki ± SD, 5-HT1A [3H]8OH-DPAT” value in test [1] is recorded as “no affinity”. Also, the Ki in test [1] (read-out: Ki ± SD, 5-HT1A [3H]8OH-DPAT) is over 10 µM. Also, the “further decrease of cell viability compared with Tamoxifen alone” value in the test with MCF7 cells (SER 5 μM) and in the test with MCF7 cells (SER at IC50 dose) was “≈ 15%” each time.
